A short description of data set [1]: Clearance in human liver microsomes at 1 uM after 40 mins by HPLC-MS analysis. It counts as ADME, Microsome. Particulars: read-out: CLH. A general note: Microsomes from liver hold many membrane-bound enzymes, among them those of drug oxidation.
Data set [2] in a line: Lipophilicity, log D of the compound at pH 7.4. The format is physicochemical. Particulars: buffer.
Data set [3] is described as follows: Volume of distribution at steady state in Wistar Han rat at 1 mg/kg, iv. It counts as ADME, organism-based. Details: dose 1 mg/kg, route intravenous. To be noted: in vivo, read-out: Vdss.
The nature of data set [4]: Oral bioavailability in Wistar Han rat at 30 mg/kg. It counts as ADME, organism-based. To be noted: in vivo.
Data set [5] in a line: Plasma clearance in Wistar Han rat at 1 mg/kg, iv. The format is ADME, organism-based. Also on record: dose 1 mg/kg, route intravenous.
For data set [6], the system named is Rattus norvegicus. In words: fCmax in Wistar Han rat at 30 mg/kg, po. The format is ADME, organism-based. Details: dose 30 mg/kg, route oral. To be noted: in vivo.
Data set [7] can be described thus: Cmax in Wistar Han rat at 30 mg/kg, po. It counts as ADME, organism-based. Details: dose 30 mg/kg, route oral. To be noted: in vivo.
A short description of data set [8]: Terminal elimination half life in Wistar Han rat at 1 mg/kg, iv. It counts as ADME, organism-based. Also on record: dose 1 mg/kg, route intravenous. To be noted: in vivo, read-out: beta t1/2 (converted).
Data set [9] can be described thus: Cmax in Wistar Han rat at 100 mg/kg, po. Particulars: in vivo. The format is ADME, organism-based. Details: dose 100 mg/kg, route oral.
The subject of data set [10] is Rattus norvegicus. In words: fCmax in Wistar Han rat at 100 mg/kg, po. The format is ADME, organism-based. Details: dose 100 mg/kg, route oral. To be noted: in vivo.
The nature of data set [11]: Terminal elimination half life in Wistar Han rat at 100 mg/kg, po. Details: dose 100 mg/kg, route oral. Particulars: in vivo, read-out: beta t1/2 (converted). The format is ADME, organism-based.

The record followed here is ChEMBL document CHEMBL2203248, “Identification of novel series of pyrazole and indole-urea based DFG-out PYK2 inhibitors” (Bioorg Med Chem Lett, 2012).

Usually logD stands for lipophilicity at a set pH, counting ionised and neutral species. A higher logD goes with higher lipophilicity. What is called bioavailability is the share of a dose that reaches the circulation, judged against a reference dose that is usually intravenous. A lower bioavailability goes with poor availability. The clearance is a measure of how efficiently the substance is removed, as volume per time. A lower clearance goes with a low capacity for elimination. As a reminder, the Cmax is the peak of the concentration-time curve.

Molecules are shown by their SMILES.

As to `Cc1ccc(-n2nc(C(C)(C)C)cc2NC(=O)Nc2cc(COc3cccnc3)n[nH]2)cc1`, the CLint scaled at 1 µM in [1] was determined as 109 mL/min/kg.
Turning to `CNC(=O)c1cc2cccc(NC(=O)Nc3cc(C(C)(C)C)nn3-c3ccc(C)cc3)c2[nH]1`, the CLint scaled at 1 µM in data set [1] was determined as 28 mL/min/kg. In addition, in data set [2], the pH-dependent lipophilicity (logD) came to 4.9.
Taken in the same sequence, the figures for `Cc1ccc(-n2nc(C(C)(C)C)cc2NC(=O)Nc2cccc3cc(C(=O)NC(C)C)[nH]c23)cc1` were 93 mL/min/kg and 5.3.
For the compound `Cc1ccc(-n2nc(C(C)(C)C)cc2NC(=O)Nc2cccc3cc(C(=O)N4CCC5(CCNC5)C4)[nH]c23)cc1` (stereo not given), in [1], the CLint scaled at 1 µM stood at 53 mL/min/kg.
As for `Cc1ccc(-n2nc(C(C)(C)C)cc2NC(=O)Nc2cccc3cc(C(=O)N(C)CCc4ccccn4)[nH]c23)cc1`, in data set [3], the Vd worked out at 0.4 L/kg. Moreover, the CLint scaled at 1 µM in data set [1] came out at 53 mL/min/kg. For the same compound, the bioavailability in data set [4] was determined as 69%. In data set [5], this compound yielded a clearance of 3.2 mL/min/kg. Also, in the data set on Rattus norvegicus [6], the fCmax amounted to 25 nM. Further, in [7], the Cmax turned out to be 38.3 µM. For the same compound, in data set [8], the half-life is 2.2 h.
With `CCOCCCNC(=O)c1cc2cccc(NC(=O)Nc3cc(C(C)(C)C)nn3-c3ccc(C)cc3)c2[nH]1`, the Vd in data set [3] came out at 0.7 L/kg. Besides, the CLint scaled at 1 µM in data set [1] is 31 mL/min/kg. Also, the bioavailability in data set [4] stood at 1.6%. Besides, in data set [5], the clearance is 4.8 mL/min/kg. Also, the fCmax in the data set on Rattus norvegicus [6] was found to be 42 nM. The same compound yielded a Cmax in [7] of 0.621 µM. Moreover, the half-life in [8] was 4.1 h.
As for `COc1ccc(-c2cc(NC(=O)Nc3cc(C(C)(C)C)nn3-c3ccc(C)cc3)n[nH]2)c(C)c1`, the CLint scaled at 1 µM in [1] amounted to 129 mL/min/kg.
As for `COc1ccc(-c2cc(NC(=O)Nc3cc(C(C)(C)C)nn3-c3ccc(C)cc3)n[nH]2)cn1`, the CLint scaled at 1 µM in data set [1] turned out to be 48 mL/min/kg. For the same compound, the logD in [2] is 4.9.
For `Cc1ccc(-n2nc(C(C)(C)C)cc2NC(=O)Nc2cc(-c3ccc(=O)[nH]c3)n[nH]2)cc1`, the CLint scaled at 1 µM in [1] is 11.9 mL/min/kg. The compound also had a logD in [2] of 3.7.
For `Cc1ccc(-n2nc(C(C)(C)C)cc2NC(=O)Nc2cc(-c3ccc(O)nn3)[nH]n2)cc1`, the CLint scaled at 1 µM in [1] was determined as 16 mL/min/kg.
As for `Cc1ccc(-n2nc(C(C)(C)C)cc2NC(=O)Nc2cc(-c3ccc(=O)n(C)c3)n[nH]2)cc1`, in data set [1], the CLint scaled at 1 µM was determined as 20 mL/min/kg. In data set [2], the logD stood at 3.8.
`Cc1ccc(-n2nc(C(C)(C)C)cc2NC(=O)Nc2cc(-c3ccc4c(c3)OCCO4)[nH]n2)cc1`: the CLint scaled at 1 µM in data set [1] turned out to be 92 mL/min/kg.
In the case of `Cc1ccc(-n2nc(C(C)(C)C)cc2NC(=O)Nc2cc(-c3ccc4nccn4c3)[nH]n2)cc1`, the CLint scaled at 1 µM in data set [1] came to 44 mL/min/kg. Further, the logD in data set [2] was 4.5.
On to `Cc1ccc(-n2nc(C(C)(C)C)cc2NC(=O)Nc2cc(-c3ccc4ncccc4c3)n[nH]2)cc1`, for which the Vd in data set [3] came to 0.15 L/kg. Further, the CLint scaled at 1 µM in [1] was 55 mL/min/kg. For the same compound, the bioavailability in [4] was 47%. This compound had a clearance in [5] of 2 mL/min/kg. Besides, the fCmax in the data set with Rattus norvegicus [6] is given as 184 nM. In data set [2], this compound returned a logD of 5.2. Further, in data set [7], the highest concentration (Cmax) was 61.3 µM. Moreover, in [8], the half-life is 2 h.
With `Cc1ccc(-n2nc(C(C)(C)C)cc2NC(=O)Nc2cc(-c3ccc4nccnc4c3)[nH]n2)cc1`, the CLint scaled at 1 µM in [1] was 149 mL/min/kg. This compound returned a Cmax in data set [9] of 0.068 µM. Besides, in the data set with Rattus norvegicus [10], the fCmax was determined as 1.1 nM. The half-life in [11] is 7.3 h. The logD in [2] is 4.7.
For the compound `Cc1ccc(-n2nc(C(C)(C)C)cc2NC(=O)Nc2cccc3cc(C(=O)N4CCCC4)[nH]c23)cc1`, the CLint scaled at 1 µM in data set [1] was 77 mL/min/kg.
